Patent US7208176B2, “Drug delivery device containing neuraminidase inhibitor and an H1 antagonist” (Osmotica Corp., priority 2001, dated 2007)

Experiments:
[1] = cited from earlier work
in vivo = conditions: po
[2] = cited from earlier work; remark: listed apart in the source

Structure (SMILES) | median serum half-life ([1]; Cass et al.) | dose systemically absorbed (median) ([1]; in vivo) [%] | excreted unchanged in the urine ([1]; in vivo) | time to maximum serum concentrations ([1]; in vivo) [h] | tolerability ([1]; in vivo) | Tmax (in vivo) [h] | half-life (in vivo) [h] | steady-state plasma trough concentrations versus minimum inhibitory concentration ([2]; 75 mg twice daily) | metabolite clearance in renal impairment ([2]; human, in vivo) | absolute bioavailability of the active metabolite ([2]; in vivo, po) | time to maximal concentrations ([2]; in vivo, po) [h] | time until detectable in plasma ([2]; in vivo, po) [min] | accumulation ([2]; in vivo) | apparent half-life ([2]; in vivo) [h] | exposure at steady state, higher in elderly compared with young individuals ([2]; in vivo) | time to steady-state plasma concentrations ([2]; in vivo) [days] | absorption and conversion after oral administration ([2]; oral, G. He et al.)
CC(=O)N[C@H]1[C@H]([C@H](O)[C@H](O)CO)OC(C(=O)O)=C[C@@H]1N=C(N)N [zanamivir, 4-guanidino-2,4-dideoxy-2,3-dehydro-N-acetylneuraminic acid] | 2.5 and 5.05 hours | 10 to 20 | approximately 90% | 1 to 2 | well tolerated at all doses |  |  |  |  |  |  |  |  |  |  |  | 
CCC(CC)O[C@@H]1C=C(C(=O)O)C[C@H](N)[C@H]1NC(C)=O [Active metabolite of oseltamivir, oseltamivir carboxylate] |  |  |  |  |  | 8 | 14 | remain above the minimum inhibitory concentration for all influenza strains tested | decreases linearly with creatinine clearance | about 80% | 3 to 4 | ≤ 30 | less than 2 fold | 6 to 10 | approximately 25% | ≤ 3 | 
CCOC(=O)C1=C[C@@H](OC(CC)CC)[C@H](NC(C)=O)[C@@H](N)C1 [Oseltamivir, reference compound] |  |  |  |  |  | 3 | 5 to 7 |  |  |  |  |  |  |  |  |  | readily absorbed from the gastrointestinal tract and extensively converted to the active metabolite
